These results are taken from the supplement of paper PMC10307832.

Holding throughout (assay): relative viability (nuclei count vs DMSO), 5 days (fraction); higher = more cells survive
Compound in assay [1]: C[As](C)SC[C@H](NC(=O)CC[C@H](N)C(=O)O)C(=O)NCC(=O)O [Darinaparsin] + CC(=O)Nc1cccc(-n2c(=O)n(C3CC3)c(=O)c3c(Nc4ccc(I)cc4F)n(C)c(=O)c(C)c32)c1 [Trametinib] (partner 0.02 µM)
Summed up: (§1)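 Nuclei were stained with Hoechst during a one-step fixation (final 0.05% Triton X-100, 1% formaldehyde, 1 ug/ml Hoechst) carried out 5 days after dosing, then counted on 4× images. The cells, lung cancer lines in 1536-well plates, had been dosed by pin tool the day after seeding with one drug alone or a fixed anchor-drug dose plus five library-drug doses (not always all listed) in √10 steps. Relative viability is the nuclei count in treated wells divided by that in vehicle wells, and each value is the median of duplicate plates.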

Compound in assay [2]: C1CC2=C(C1)C=C(C=C2)OC3=NC(=C4C(=N3)N(C=N4)CC5=CC=C(C=C5)C6=CC=CC=C6)N[C@@H](CC7=CC=CC=C7)CO [QS11] + Nc1ncn([C@H]2C[C@H](O)[C@@H](CO)O2)c(=O)n1 [Decitabine] (partner 2 µM)
Put shortly:
as §1

Compound in assay [3]: C1CC2=C(C1)C=C(C=C2)OC3=NC(=C4C(=N3)N(C=N4)CC5=CC=C(C=C5)C6=CC=CC=C6)N[C@@H](CC7=CC=CC=C7)CO [QS11] + CC(C)C[C@H](NC(=O)[C@H](Cc1ccccc1)NC(=O)c1cnccn1)B(O)O [Bortezomib] (partner 0.002 µM)
Summed up: as §1

Compound in assay [4]: CC1=C(C=C(C=C1)NC(=O)C2=CC(=CC=C2)C(C)(C)C#N)NC3=CC4=C(C=C3)N=CN(C4=O)C [AZ628] + CC(=O)c1c(C)c2cnc(Nc3ccc(N4CCNCC4)cn3)nc2n(C2CCCC2)c1=O [Palbociclib] (partner 0.5 µM)
Summed up:
as §1

Compound in assay [5]: C[As](C)SC[C@H](NC(=O)CC[C@H](N)C(=O)O)C(=O)NCC(=O)O [Darinaparsin] + CCNC(=O)c1noc(-c2cc(C(C)C)c(O)cc2O)c1-c1ccc(CN2CCOCC2)cc1 [Luminespib] (partner 0.01 µM)
Put shortly:
as §1

For the cell line LCLC-97TM1, the relative viability is 0.264 in assay [1] (first compound 0.08 µM); 0.237 in assay [1] (first compound 0.8 µM); 0.204 in assay [1] (first compound 2.53 µM); 0.225 in assay [1] (first compound 8 µM); 0.213 in assay [2] (first compound 0.253 µM); 0.257 in assay [2] (first compound 2.53 µM). Moreover, the relative viability in assay [2] (first compound 8 µM) came to 0.219; in assay [3] (first compound 0.253 µM) it was 0.971; in assay [3] (first compound 0.8 µM) it was 0.611; in assay [3] (first compound 2.53 µM), 0.537; in assay [3] (first compound 8 µM), 1.18; in assay [4] (first compound 0.08 µM), 0.231. The relative viability in assay [4] (first compound 0.253 µM) is 0.217; in assay [4] (first compound 0.8 µM), 0.193; in assay [4] (first compound 2.53 µM) it was 0.182; in assay [4] (first compound 8 µM), 0.113; in assay [5] (first compound 0.08 µM) it was 0.939; in assay [5] (first compound 0.8 µM) it was 0.659. Also, the results for the relative viability in assay [5] (first compound 2.53 µM) and in assay [5] (first compound 8 µM) were 0.699 and 0.888, respectively.
